The values that follow come from ChEMBL document CHEMBL5357056, “Precursor-Directed Biosynthesis of Antialgal Fluorinated Bacillamide Derivatives in Bacillus atrophaeus” (J Nat Prod, 2024).

Experiment [1] in a line: Anti-phytoplankton activity against Skeletonema grethae assessed as reduction in chlorophyll a level measured after 72 hrs by fluorescence based analysis. The experiment is classed as functional, organism-based.
Another experiment relates to Karenia brevis. Nature of the experiment: Anti-phytoplankton activity against Karenia brevis assessed as change in chlorophyll a level measured after 72 hrs by fluorescence based analysis. The experiment is classed as functional, organism-based.

For orientation: IC50 means the concentration at which inhibition is half-maximal.

`N#Cc1c(-c2ccc(Cl)cc2)[nH]c(C(F)(F)F)c1Br`: the IC50 in experiment [1] was determined as 13.1 µM; in the experiment with Karenia brevis, 1.35 µM.
The matching figures for `CC(=O)NCCc1c[nH]c2ccccc12`: more than 200 µM and more than 200 µM.
On the same counts, the results for `CC(=O)NCCc1c[nH]c2cccc(F)c12` are more than 200 µM and more than 200 µM.
Consider `CC(=O)N[C@H](C)c1nc(C(=O)NCCc2c[nH]c3cccc(F)c23)cs1`, for which the IC50 (in experiment [1]; in the experiment with Karenia brevis) was more than 200 µM throughout.
As for `CC(=O)N[C@H](C)c1nc(C(=O)NCCc2c[nH]c3cc(F)ccc23)cs1`, the IC50 in experiment [1] is more than 200 µM; in the experiment on Karenia brevis it was 28.7 µM.
As to `CC(=O)c1nc(C(=O)NCCc2c[nH]c3cccc(F)c23)cs1`, the IC50 (in experiment [1]; in the experiment with Karenia brevis) was more than 200 µM each time.
Consider `CC(=O)c1nc(C(=O)NCCc2c[nH]c3ccc(F)cc23)cs1`, for which the 50% inhibitory concentration (IC50) was more than 200 µM in experiment [1] and 186 µM in the experiment with Karenia brevis.
Consider `CC(=O)c1nc(C(=O)NCCc2c[nH]c3cc(F)ccc23)cs1`, for which the IC50 in experiment [1] was more than 200 µM; with Karenia brevis it was 107 µM.
Regarding `CC(=O)N[C@H](C)c1nc(C(=O)NCCc2c[nH]c3ccc(F)cc23)cs1`, the IC50 (in experiment [1]; in the experiment on Karenia brevis) was more than 200 µM throughout.
With `CC(=O)c1nc(C(=O)NCCc2c[nH]c3ccccc23)cs1` [BACILLAMIDE A], the IC50 (in experiment [1]; in the experiment on Karenia brevis) was more than 200 µM throughout.
Consider `CC(=O)N[C@H](C)c1nc(C(=O)NCCc2c[nH]c3ccccc23)cs1` [BACILLAMIDE C], for which the IC50 (in experiment [1]; in the experiment with Karenia brevis) was more than 200 µM each time.
Turning to `C[C@@H]1C[C@@H]([C@H](O)CC2CC(=O)NC(=O)C2)C(=O)[C@@H](C)C1` [CYCLOHEXIMIDE], the IC50 worked out at 0.5 µM in experiment [1] and 0.55 µM in the experiment on Karenia brevis.
